In data set [1] the target is T1, human adenosine A3 receptor (Homo sapiens, UniProt P0DMS8).
T1 construct: expressed in transfected cells; membrane fraction
T1 sequence (P0DMS8 1-318): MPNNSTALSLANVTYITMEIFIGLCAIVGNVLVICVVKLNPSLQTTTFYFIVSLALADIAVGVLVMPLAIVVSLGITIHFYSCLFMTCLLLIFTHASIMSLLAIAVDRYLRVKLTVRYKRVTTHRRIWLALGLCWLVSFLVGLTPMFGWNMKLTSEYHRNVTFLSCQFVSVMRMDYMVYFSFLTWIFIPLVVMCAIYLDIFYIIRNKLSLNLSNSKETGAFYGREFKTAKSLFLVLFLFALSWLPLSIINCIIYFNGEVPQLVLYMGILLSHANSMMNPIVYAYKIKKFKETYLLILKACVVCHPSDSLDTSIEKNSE
The experiment in a line: Adenosine A3 receptor binding test. Particulars: membrane fraction of A3AR/CHO strain, [3H]-NECA 10 nM, room temperature 1 hour; read-out: IC50 (concentration necessary for decreasing an amount of binding of [3H]-NECA to the membrane fraction by 50%). The method, then: Genetic procedures were according to a method described in Molecular Cloning, published by Cold Spring Harbor, Laboratory, 1989 or a method described in the attached protocol of the reagent.
1) Cloning of Human Adenosine A3 Receptor
Cloning of an adenosine A3 receptor gene was performed from human brain cDNA by a PCR method. A PCR reaction was performed with a DNA thermal cycler 480 (Perkin Elmer) by using 1 ng of brain cDNA (Toyobo, QUICK-Clone cDNA) as a template, adding each 50 pmol of a primer set 5′-[…]-3′ (SEQ ID NO: 1) and 5′-[…]-3′ (SEQ ID NO: 2) made by reference to adenosine A3 receptor gene base sequence reported by Salvatore et al. (Proc. Natl. Acad. Sci. U.S.A., 90:10365-10369, 1993) and employing Takara LA PCR Kit Ver. 2 (Takara Shuzo) (reaction conditions: 35 cycles of 1 minute at 95° C., 1 minute at 66° C., 2 minutes at 75° C.). The resulting PCR product was subjected to agarose gel electrophoresis and 1.0 kb of DNA fragment was recovered and, thereafter, an adenosine A3 receptor gene was cloned using Original TA Cloning Kit (Funakoshi).
Next, the resulting plasmid was digested with a restriction enzyme XbaI (Takara Shuzo), treated with T4 DNA polymerase (Takara Shuzo) into end-blunted fragments and further digested with SalI (Takara Shuzo) to obtain adenosine A3 receptor gene fragments.
2) Preparation of a Plasmid for Expressing of Human Adenosine A3 Receptor […]

Data set [2] concerns TNF-α production in THP-1 cells. Put plainly: Measurement of inhibiting activity of TNF-α production. The data set is classed as cell-based. As to conditions: Homo sapiens, LPS 5 μg/mL, 4 hours, TNF-α in supernatant by ELISA, read-out: IC50 (concentration necessary for inhibiting TNF-α production by 50%). As for the experimental part: Measurement of Inhibiting Activity of TNF-α Production
After THP-1 cells which had been cultured on PRMI 1640 medium (manufactured by Life Technologies, Inc.) containing 1% non-activated bovine fetal serum (manufactured by Life Technologies, Inc., U.S.A.) and 10 mM HEPES (pH 7.5) seeded on a 96-well plate to 1×10^5 cells/well, 1 μL test compound dissolved in DMSO was added to there. After incubation at 37° C. for 1 hour in a CO2 incubator, LPS (Wako Pure Chemicals) was added to the final concentration 5 μg/mL. After cultured at 37° C. for 4 hours in a CO2 incubator, the supernatant was obtained by centrifugation. The concentration of TNF-α in the supernatant was measured with ELISA (R&D System, Quantikine Kit). The concentration (IC50 value) necessary for inhibiting TNF-α production by 50% was calculated by PRIMS 2.01 (Graphpad Software).
(An ELISA detects its analyte on a solid surface through an enzyme-linked reagent.)

Each structure is given as a SMILES string.

Turning to `Cc1cc(C)cc(-c2nc(N)sc2-c2ccnc(OCc3ccccc3)c2)c1` [Example 1, [4-(3,5-dimethylphenyl)-5-(2-phenylmethyloxy-4-pyridyl)-1,3-thiazol-2-yl]amine], the IC50 in data set [1] was determined as 11.6 nM.
Take `COc1ccc(-c2nc(NC(=O)c3cccnc3)sc2-c2ccnc(NC(=O)c3cccnc3)c2)cc1` [Example 3, N-[4-(4-methoxypheny)-5-[2-[(3-pyridylcarbonylamino)]-4-pyridyl]-1,3-thiazol-2-yl]nicotinamide]: the IC50 in data set [2] came out at 26 nM.
On the same count and under the same terms, the result for `COc1ccc(-c2nc(N)sc2-c2ccnc(NC(=O)c3ccccc3)c2)cc1` [Example 4, N-[4-[2-amino-4-(4-methoxyphenyl)-1,3-thiazol-5-yl]-2-pyridyl]benzamide] reads 14 nM; that for `Cc1cc(C)cc(-c2nc(N)sc2-c2ccnc(NCc3ccccc3)c2)c1` [Example 6, N-[4-[2-amino-4-(3,5-dimethylphenyl)-1,3-thiazol-5-yl]-2-pyridyl]benzylamine], 140 nM.
For `Cc1cccc(-c2nc(-c3ccc(S(C)(=O)=O)cc3)sc2-c2ccnc(NCc3ccc(F)cc3)c2)c1` [Example Compound 25-2, N-(4-fluorobenzyl)-N-[4-[4-(3-methylphenyl)-2-(4-methylsulfonylphenyl)-1,3-thiazol-5-yl]-2-pyridyl]amine], the melting point (commonly the temperature of the solid-liquid transition) lay within 155 to 158 °C.
For the compound `Cc1cccc(-c2nc(-c3ccc(S(C)(=O)=O)cc3)sc2-c2ccnc(N(C)Cc3ccccc3)c2)c1` [Example Compound 25-3, N-benzyl-N-methyl-N-[4-[4-(3-methylphenyl)-2-(4-methylsulfonylphenyl)-1,3-thiazol-5-yl]-2-pyridyl]amine], the melting point was in the range of 165 to 166 °C.
With `Cc1cccc(-c2nc(-c3ccc(S(C)(=O)=O)cc3)sc2-c2ccnc(N(C)CCc3ccccc3)c2)c1` [Example Compound 25-4, N-methyl-N-[4-[4-(3-methylphenyl)-2-(4-methylsulfonylphenyl)-1,3-thiazol-5-yl]-2-pyridyl]-N-(2-phenylethyl)amine], the melting point was in the range of 116 to 117 °C.
Regarding `Cc1cccc(-c2nc(-c3ccc(S(C)(=O)=O)cc3)sc2-c2ccnc(NCc3cccs3)c2)c1` [Example Compound 25-5, N-[4-[4-(3-methylphenyl)-2-(4-methylsulfonylphenyl)-1,3-thiazol-5-yl]-2-pyridyl]-N-(2-thienylmethyl)amine], the melting point is 107 to 109 °C.

Values taken from patent US7276527B2, “5-pyridyl-1,3-azole compounds, process for producing the same and use thereof” (Takeda Pharmaceutical Company Limited, priority 1999, dated 2007).
